# Square brackets hold non-standard residues; d marks the D form. Peptide text beside a SMILES is read from it. * marks the point of attachment. 4Abz = Nc1ccc(C(=O)O)cc1; NHBn = c1ccc(CN*)cc1
# Target: RAC-alpha serine/threonine-protein kinase (Homo sapiens, UniProt P31749)
# Assay: AKT IMAP Fluorescence Polarization Assay
# Details: pH 7.2; 23 °C
# Excerpt: A bead-based FP assay methodology, termed IMAP, has been developed for the serine/threonine kinase, AKT that allows for direct measurement of product formation. The assay design utilizes a fluoresceinated peptide substrate that, when phosphorylated by the kinase, binds to nanoparticles derivatized with trivalent metal cations through a metal-phospholigand interaction. The result of this bound fluoresceinated phosphorylated product is an increase in polarization signal caused by a decrease in the molecular mobility of the bound product. Reported values are an average of three independent binding curves utilizing an IMAP Akt Assay Kit (Molecular Devices). Reactions were conducted in wells with fluoresceinated peptide, ATP, and Akt1, and inhibitor in reaction buffer. The reactions were equilibrated for 1 h at room temperature then data points were collected and analyzed.
# Chain of RAC-alpha serine/threonine-protein kinase (P31749 whole entry): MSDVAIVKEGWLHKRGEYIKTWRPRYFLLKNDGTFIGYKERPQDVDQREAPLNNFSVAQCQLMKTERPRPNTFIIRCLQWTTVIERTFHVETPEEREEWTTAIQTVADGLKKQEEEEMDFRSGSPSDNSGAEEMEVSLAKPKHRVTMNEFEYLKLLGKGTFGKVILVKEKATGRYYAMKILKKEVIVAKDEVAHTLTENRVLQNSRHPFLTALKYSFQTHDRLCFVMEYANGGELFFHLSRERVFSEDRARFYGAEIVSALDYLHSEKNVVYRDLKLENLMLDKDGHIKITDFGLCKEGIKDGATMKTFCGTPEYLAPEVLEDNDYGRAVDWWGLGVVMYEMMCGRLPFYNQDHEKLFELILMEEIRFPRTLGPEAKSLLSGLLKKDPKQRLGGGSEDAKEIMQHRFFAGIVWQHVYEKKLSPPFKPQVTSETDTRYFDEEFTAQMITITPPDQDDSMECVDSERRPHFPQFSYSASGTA
row,Compound,IC50
1,"CC(=O)NCC(=O)NC(CCCN=C(N)N)C(=O)N1CCCC1C(=O)NC(CCCN=C(N)N)C(=O)Nc1ccc(C(=O)NC(C(=O)NC(Cc2ccccc2)C(=O)NCc2ccccc2)C(C)C)cc1 (configuration not stated) [Peptidomimetic, 2] (Ac-GRPR[4Abz]VF-NHBn; configuration not given here)",28 µM
2,"CC(=O)NC(CCCN=C(N)N)C(=O)Nc1ccc(C(=O)NC(C(=O)NC(Cc2ccccc2)C(=O)NCc2ccccc2)C(C)C)cc1 (configuration not stated) [Peptidomimetic, 9] (Ac-R[4Abz]VF-NHBn; configuration not given here)",119 µM
